The source of these data is patent US20240207276A1, “COMBINATION COMPRISING A NEUROTENSIN RECEPTOR BINDING COMPOUND AND FOLFIRINOX” (Fusion Pharmaceuticals Inc., priority 2021, published 2024).

The subject of the assay is AsPC1 tumors. Briefly: Efficacy study in mice bearing subcutaneous AsPC1 tumors (tumor volume). It counts as in vivo, SWISS Nude mice. Particulars: single treatments; FOLFIRINOX (Group 2) or ^177Lu-IPN01087 20 MBq/mouse IV weekly x3 (Group 3); FIG. 2. The procedure: Example 1: Efficacy Study on Animals Induced with AsPC1 Cells
The AsPC1 cell line was isolated from a metastatic site (ascites) from a patient (Chen WH. et al., In Vitro. 1982 January; 18(1):24-34).
Tumor cells were grown as monolayer at 37° C. in a humidified atmosphere (5% C02, 95% air). The culture medium is RPMI 1640 containing glutamax supplemented with 10% heat inactivated fetal bovine serum, sodium pyruvate and hepes. For experimental use, tumor cells were detached from the culture flask using accutase and neutralized by addition of complete culture medium. The cells were counted and their viability was assessed by 0.25% trypan blue exclusion assay. Two frozen pellets of AsPC-1 tumor cells were prepared: one frozen cell pellet prepared during the in-vitro cell culture, and one frozen cell pellet prepared using the cell suspension used for tumor induction in mice.
One hundred fifty (150) healthy female SWISS Nude mice (Crl:NU(Ico)-Foxn1 nu), 7 weeks old at reception, were obtained from Charles River.
Tumors were induced by subcutaneous injection of ten million (107) AsPC-1 cells in 200 μL of RPMI 1640 medium containing matrigel (50:50, v:v, ref: 356237, BD Biosciences, France) into the right flank (in the axis of the heart) of 150 female animals. […]

For “^177Lu-zalsenertant tetraxetan [^177Lu-IPN01087]”, the “AsPC-1 tumor growth, antitumor effect compared to the vehicles” value was “produced an antitumor effect”.
